Measured values reported in the kinase profiling compilation of Christmann-Franck et al. (2016).

Experiments:
Experiment in all cases: KINOMEscan competition binding
Conditions in all cases: compound 10.0 µM
ACVR1 (human) = ACVR1 (human) (UniProt Q04771)
AURKB (human) = AURKB (human) (UniProt Q96GD4)
BMP2K (human) = BMP2K (human) (UniProt Q9NSY1)
BMPR1B (human) = BMPR1B (human) (UniProt O00238)
BRSK2 (human) = BRSK2 (human) (UniProt Q8IWQ3)
CHUK (human) = CHUK (human) (UniProt O15111)
CSNK1D (human) = CSNK1D (human) (UniProt P48730)
Chain of CSNK1D (human) (P48730 whole entry, looked up): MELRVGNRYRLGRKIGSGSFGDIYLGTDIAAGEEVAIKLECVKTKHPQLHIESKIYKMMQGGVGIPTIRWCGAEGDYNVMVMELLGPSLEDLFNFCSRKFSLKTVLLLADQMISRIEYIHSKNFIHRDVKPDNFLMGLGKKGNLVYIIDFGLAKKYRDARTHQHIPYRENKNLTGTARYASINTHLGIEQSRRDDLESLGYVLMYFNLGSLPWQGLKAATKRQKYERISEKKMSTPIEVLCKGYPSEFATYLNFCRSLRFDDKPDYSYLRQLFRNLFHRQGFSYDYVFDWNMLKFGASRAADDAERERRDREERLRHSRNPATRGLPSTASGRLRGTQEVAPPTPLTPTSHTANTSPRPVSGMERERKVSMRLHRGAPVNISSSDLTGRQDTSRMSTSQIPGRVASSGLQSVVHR

CSNK1G1 (human) = CSNK1G1 (human) (UniProt Q9HCP0)
CSNK1G3 (human) = CSNK1G3 (human) (UniProt Q9Y6M4)
Chain of CSNK1G3 (human) (Q9Y6M4 whole entry, looked up): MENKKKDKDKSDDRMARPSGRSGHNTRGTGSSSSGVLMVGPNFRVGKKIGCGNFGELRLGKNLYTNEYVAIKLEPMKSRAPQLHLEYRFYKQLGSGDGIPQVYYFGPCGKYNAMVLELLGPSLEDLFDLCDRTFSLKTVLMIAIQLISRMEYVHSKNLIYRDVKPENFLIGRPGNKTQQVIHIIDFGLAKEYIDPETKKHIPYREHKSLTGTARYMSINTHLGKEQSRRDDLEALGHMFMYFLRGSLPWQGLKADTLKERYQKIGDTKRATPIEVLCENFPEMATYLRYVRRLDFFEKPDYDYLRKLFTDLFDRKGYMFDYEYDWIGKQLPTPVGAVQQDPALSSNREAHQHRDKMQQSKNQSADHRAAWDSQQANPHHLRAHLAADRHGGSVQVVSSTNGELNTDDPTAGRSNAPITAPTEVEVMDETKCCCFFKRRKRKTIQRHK

DMPK (human) = DMPK (human) (UniProt Q09013)
[1] = system: FLT3 (human), P36888 [D835H]
[2] = system: FLT3 (human), P36888 [D835Y]
[3] = system: FLT3 (human), P36888 [ITD]
[4] = system: FLT3 (human), P36888 [N841I]
GSK3A (human) = GSK3A (human) (UniProt P49840)
[5] = system: KIT (human), P10721 [V559D]
MAP4K2 (human) = MAP4K2 (human) (UniProt Q12851)
Chain of MAP4K2 (human) (Q12851 whole entry, looked up): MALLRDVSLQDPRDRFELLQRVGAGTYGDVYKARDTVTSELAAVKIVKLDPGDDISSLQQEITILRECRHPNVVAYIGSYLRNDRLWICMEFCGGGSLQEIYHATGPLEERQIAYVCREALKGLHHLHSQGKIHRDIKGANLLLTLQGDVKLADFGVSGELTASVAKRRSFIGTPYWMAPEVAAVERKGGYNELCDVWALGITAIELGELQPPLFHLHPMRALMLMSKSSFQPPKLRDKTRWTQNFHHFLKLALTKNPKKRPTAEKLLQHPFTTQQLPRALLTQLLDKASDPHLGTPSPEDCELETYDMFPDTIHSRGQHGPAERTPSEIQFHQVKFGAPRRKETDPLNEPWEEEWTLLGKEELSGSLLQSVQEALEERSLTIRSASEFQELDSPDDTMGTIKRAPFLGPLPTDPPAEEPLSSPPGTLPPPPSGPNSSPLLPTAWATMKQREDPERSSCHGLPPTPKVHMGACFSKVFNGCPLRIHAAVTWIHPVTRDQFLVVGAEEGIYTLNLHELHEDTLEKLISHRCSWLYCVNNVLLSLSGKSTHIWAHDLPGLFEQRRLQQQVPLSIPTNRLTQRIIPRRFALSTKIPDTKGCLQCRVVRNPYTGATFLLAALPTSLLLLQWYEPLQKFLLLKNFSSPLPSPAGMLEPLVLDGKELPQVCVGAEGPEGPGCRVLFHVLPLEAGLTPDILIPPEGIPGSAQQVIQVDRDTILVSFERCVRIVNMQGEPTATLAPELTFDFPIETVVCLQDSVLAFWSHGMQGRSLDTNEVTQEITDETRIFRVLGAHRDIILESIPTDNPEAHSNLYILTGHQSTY

MAP4K4 (human) = MAP4K4 (human) (UniProt O95819)
MAPK8 (human) = MAPK8 (human) (UniProt P45983)
MYLK3 (human) = MYLK3 (human) (UniProt Q32MK0)
MYLK4 (human) = MYLK4 (human) (UniProt Q86YV6)
PDGFRB (human) = PDGFRB (human) (UniProt P09619)
PHKG2 (human) = PHKG2 (human) (UniProt P15735)
PIM2 (human) = PIM2 (human) (UniProt Q9P1W9)
Chain of PIM2 (human) (Q9P1W9 whole entry, looked up): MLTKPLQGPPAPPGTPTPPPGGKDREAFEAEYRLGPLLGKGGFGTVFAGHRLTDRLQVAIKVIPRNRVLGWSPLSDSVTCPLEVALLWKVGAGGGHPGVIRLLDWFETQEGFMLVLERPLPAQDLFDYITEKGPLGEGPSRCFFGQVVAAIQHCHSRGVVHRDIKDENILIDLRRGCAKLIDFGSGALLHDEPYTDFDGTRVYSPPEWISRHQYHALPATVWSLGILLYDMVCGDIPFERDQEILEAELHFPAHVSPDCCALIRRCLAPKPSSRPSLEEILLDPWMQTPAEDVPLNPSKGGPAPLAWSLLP

PIP4K2B (human) = PIP4K2B (human) (UniProt P78356)
PIP5K1A (human) = PIP5K1A (human) (UniProt Q99755)
Chain of PIP5K1A (human) (Q99755 whole entry, looked up): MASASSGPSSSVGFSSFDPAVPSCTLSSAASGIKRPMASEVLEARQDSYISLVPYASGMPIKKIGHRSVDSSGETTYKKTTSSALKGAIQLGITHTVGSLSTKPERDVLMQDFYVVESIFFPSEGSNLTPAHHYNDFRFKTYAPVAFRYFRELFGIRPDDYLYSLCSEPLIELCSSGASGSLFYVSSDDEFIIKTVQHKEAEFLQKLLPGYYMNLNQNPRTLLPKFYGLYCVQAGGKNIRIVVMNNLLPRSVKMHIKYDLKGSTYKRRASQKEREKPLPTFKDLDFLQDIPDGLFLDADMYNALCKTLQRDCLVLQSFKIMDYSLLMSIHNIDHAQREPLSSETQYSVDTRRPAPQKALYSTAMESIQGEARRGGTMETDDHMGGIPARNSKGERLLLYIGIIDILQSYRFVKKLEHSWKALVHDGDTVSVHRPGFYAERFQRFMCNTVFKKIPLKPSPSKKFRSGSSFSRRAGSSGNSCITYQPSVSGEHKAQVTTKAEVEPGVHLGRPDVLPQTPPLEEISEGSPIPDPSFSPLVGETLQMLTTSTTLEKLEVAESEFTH

PLK4 (human) = PLK4 (human) (UniProt O00444)
Chain of PLK4 (human) (O00444 whole entry, looked up): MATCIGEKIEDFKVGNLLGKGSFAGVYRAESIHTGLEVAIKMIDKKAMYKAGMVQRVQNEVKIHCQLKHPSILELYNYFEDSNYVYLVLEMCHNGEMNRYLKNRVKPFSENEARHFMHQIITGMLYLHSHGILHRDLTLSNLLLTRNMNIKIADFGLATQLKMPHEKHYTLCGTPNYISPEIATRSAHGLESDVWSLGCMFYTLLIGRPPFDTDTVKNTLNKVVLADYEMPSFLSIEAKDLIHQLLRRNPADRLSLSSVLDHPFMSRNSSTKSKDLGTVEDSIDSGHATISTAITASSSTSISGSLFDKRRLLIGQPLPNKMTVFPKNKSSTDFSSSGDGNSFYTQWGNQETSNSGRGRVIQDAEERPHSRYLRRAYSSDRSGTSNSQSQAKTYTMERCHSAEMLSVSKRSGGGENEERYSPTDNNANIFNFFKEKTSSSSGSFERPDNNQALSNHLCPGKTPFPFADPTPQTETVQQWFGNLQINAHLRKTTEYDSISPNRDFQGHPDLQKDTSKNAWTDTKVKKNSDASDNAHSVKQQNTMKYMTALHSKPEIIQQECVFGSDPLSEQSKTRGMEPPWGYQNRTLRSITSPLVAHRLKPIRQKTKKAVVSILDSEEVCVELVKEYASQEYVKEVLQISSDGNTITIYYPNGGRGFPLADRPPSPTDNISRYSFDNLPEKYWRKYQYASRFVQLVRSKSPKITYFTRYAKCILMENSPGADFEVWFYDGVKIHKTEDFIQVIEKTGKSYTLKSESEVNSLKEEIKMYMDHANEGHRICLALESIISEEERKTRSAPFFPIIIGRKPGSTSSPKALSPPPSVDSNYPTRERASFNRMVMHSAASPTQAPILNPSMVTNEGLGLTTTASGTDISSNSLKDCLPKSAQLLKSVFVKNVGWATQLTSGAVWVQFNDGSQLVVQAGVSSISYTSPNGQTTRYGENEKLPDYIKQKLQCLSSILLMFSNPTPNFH

PRKD3 (human) = PRKD3 (human) (UniProt O94806)
RIOK3 (human) = RIOK3 (human) (UniProt O14730)
RIPK2 (human) = RIPK2 (human) (UniProt O43353)
Chain of RIPK2 (human) (O43353 whole entry, looked up): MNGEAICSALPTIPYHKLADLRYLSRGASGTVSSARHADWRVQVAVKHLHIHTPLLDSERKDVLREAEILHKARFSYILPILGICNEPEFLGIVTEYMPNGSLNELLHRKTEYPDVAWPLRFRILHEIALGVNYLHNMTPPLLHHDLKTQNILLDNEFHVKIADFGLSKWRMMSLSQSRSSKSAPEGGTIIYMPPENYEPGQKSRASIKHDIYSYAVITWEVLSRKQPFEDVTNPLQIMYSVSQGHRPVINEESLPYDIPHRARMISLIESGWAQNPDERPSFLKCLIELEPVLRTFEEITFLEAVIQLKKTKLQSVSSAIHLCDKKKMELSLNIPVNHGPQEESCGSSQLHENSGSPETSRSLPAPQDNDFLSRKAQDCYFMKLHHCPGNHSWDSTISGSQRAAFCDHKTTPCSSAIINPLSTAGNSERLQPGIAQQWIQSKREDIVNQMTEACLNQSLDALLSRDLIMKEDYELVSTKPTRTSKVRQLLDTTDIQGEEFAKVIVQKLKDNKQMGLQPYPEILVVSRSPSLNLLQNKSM

RPS6KA2 KD2 (human) = RPS6KA2 KD2 (human) (UniProt Q15349)
RPS6KA6 KD2 (human) = RPS6KA6 KD2 (human) (UniProt Q9UK32)
SRPK2 (human) = SRPK2 (human) (UniProt P78362)
SRPK3 (human) = SRPK3 (human) (UniProt Q9UPE1)
STK11 (human) = STK11 (human) (UniProt Q15831)
Chain of STK11 (human) (Q15831 whole entry, looked up): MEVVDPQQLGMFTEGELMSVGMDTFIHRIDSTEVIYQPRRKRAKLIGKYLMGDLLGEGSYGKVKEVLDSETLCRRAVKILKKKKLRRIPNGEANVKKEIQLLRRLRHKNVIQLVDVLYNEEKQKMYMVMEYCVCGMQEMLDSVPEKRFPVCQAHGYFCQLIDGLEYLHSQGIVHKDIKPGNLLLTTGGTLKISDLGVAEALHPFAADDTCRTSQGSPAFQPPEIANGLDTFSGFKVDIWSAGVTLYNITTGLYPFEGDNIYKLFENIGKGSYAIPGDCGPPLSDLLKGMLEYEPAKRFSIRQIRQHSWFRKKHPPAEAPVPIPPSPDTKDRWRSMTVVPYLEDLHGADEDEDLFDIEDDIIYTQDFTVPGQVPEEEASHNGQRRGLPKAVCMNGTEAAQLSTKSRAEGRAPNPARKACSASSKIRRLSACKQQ

STK17A (human) = STK17A (human) (UniProt Q9UEE5)
STK24 (human) = STK24 (human) (UniProt Q9Y6E0)
STK33 (human) = STK33 (human) (UniProt Q9BYT3)
TAOK3 (human) = TAOK3 (human) (UniProt Q9H2K8)
TGFBR2 (human) = TGFBR2 (human) (UniProt P37173)
TNK1 (human) = TNK1 (human) (UniProt Q13470)
TTK (human) = TTK (human) (UniProt P33981)

Chain of ACVR1 (human) (Q04771 whole entry, looked up): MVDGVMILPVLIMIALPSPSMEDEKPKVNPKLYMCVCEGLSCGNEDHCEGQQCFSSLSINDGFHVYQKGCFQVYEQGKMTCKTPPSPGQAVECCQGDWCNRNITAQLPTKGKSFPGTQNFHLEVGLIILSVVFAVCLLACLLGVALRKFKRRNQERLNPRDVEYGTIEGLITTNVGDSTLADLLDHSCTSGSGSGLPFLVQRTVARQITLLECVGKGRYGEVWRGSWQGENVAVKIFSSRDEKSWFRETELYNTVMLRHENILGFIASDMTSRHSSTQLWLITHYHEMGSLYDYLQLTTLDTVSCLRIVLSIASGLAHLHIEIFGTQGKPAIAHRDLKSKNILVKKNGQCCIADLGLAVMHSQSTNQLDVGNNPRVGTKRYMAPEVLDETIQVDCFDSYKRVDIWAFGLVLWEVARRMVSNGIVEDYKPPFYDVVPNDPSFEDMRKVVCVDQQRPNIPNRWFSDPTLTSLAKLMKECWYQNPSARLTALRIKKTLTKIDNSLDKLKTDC

COc1cc(N2CCC(O)CC2)ccc1Nc1ncc2c(n1)N1CCc3cccc(c31)C(=O)N2C
kinase still bound, per cent of control (ACVR1 (human)): 95% | kinase still bound, per cent of control (AURKB (human)): 100% | kinase still bound, per cent of control (BMP2K (human)): 84% | kinase still bound, per cent of control (BMPR1B (human)): 88% | kinase still bound, per cent of control (BRSK2 (human)): 85% | kinase still bound, per cent of control (CHUK (human)): 79% | kinase still bound, per cent of control (CSNK1D (human)): 60% | kinase still bound, per cent of control (CSNK1G1 (human)): 100% | kinase still bound, per cent of control (CSNK1G3 (human)): 90% | kinase still bound, per cent of control (DMPK (human)): 65% | kinase still bound, per cent of control [1]: 73% | kinase still bound, per cent of control [2]: 68% | kinase still bound, per cent of control [3]: 100% | kinase still bound, per cent of control [4]: 93% | kinase still bound, per cent of control (GSK3A (human)): 100% | kinase still bound, per cent of control [5]: 93% | kinase still bound, per cent of control (MAP4K2 (human)): 94% | kinase still bound, per cent of control (MAP4K4 (human)): 57% | kinase still bound, per cent of control (MAPK8 (human)): 68% | kinase still bound, per cent of control (MYLK3 (human)): 100% | kinase still bound, per cent of control (MYLK4 (human)): 100% | kinase still bound, per cent of control (PDGFRB (human)): 87% | kinase still bound, per cent of control (PHKG2 (human)): 68% | kinase still bound, per cent of control (PIM2 (human)): 100% | kinase still bound, per cent of control (PIP4K2B (human)): 100% | kinase still bound, per cent of control (PIP5K1A (human)): 91% | kinase still bound, per cent of control (PLK4 (human)): 5.4% | kinase still bound, per cent of control (PRKD3 (human)): 22% | kinase still bound, per cent of control (RIOK3 (human)): 92% | kinase still bound, per cent of control (RIPK2 (human)): 100% | kinase still bound, per cent of control (RPS6KA2 KD2 (human)): 23% | kinase still bound, per cent of control (RPS6KA6 KD2 (human)): 3.2% | kinase still bound, per cent of control (SRPK2 (human)): 100% | kinase still bound, per cent of control (SRPK3 (human)): 89% | kinase still bound, per cent of control (STK11 (human)): 91% | kinase still bound, per cent of control (STK17A (human)): 100% | kinase still bound, per cent of control (STK24 (human)): 84% | kinase still bound, per cent of control (STK33 (human)): 3.3% | kinase still bound, per cent of control (TAOK3 (human)): 70% | kinase still bound, per cent of control (TGFBR2 (human)): 100% | kinase still bound, per cent of control (TNK1 (human)): 5.8% | kinase still bound, per cent of control (TTK (human)): 6.1%

COc1cc(N2CCN(C)CC2)ccc1Nc1ncc2c(n1)Nc1ccccc1NC2=O
kinase still bound, per cent of control (ACVR1 (human)): 37% | kinase still bound, per cent of control (AURKB (human)): 59% | kinase still bound, per cent of control (BMP2K (human)): 72% | kinase still bound, per cent of control (BMPR1B (human)): 19% | kinase still bound, per cent of control (BRSK2 (human)): 100% | kinase still bound, per cent of control (CHUK (human)): 67% | kinase still bound, per cent of control (CSNK1D (human)): 42% | kinase still bound, per cent of control (CSNK1G1 (human)): 100% | kinase still bound, per cent of control (CSNK1G3 (human)): 96% | kinase still bound, per cent of control (DMPK (human)): 91% | kinase still bound, per cent of control [1]: 20% | kinase still bound, per cent of control [2]: 20% | kinase still bound, per cent of control [3]: 63% | kinase still bound, per cent of control [4]: 25% | kinase still bound, per cent of control (GSK3A (human)): 100% | kinase still bound, per cent of control [5]: 55% | kinase still bound, per cent of control (MAP4K2 (human)): 6.3% | kinase still bound, per cent of control (MAP4K4 (human)): 86% | kinase still bound, per cent of control (MAPK8 (human)): 73% | kinase still bound, per cent of control (MYLK3 (human)): 100% | kinase still bound, per cent of control (MYLK4 (human)): 100% | kinase still bound, per cent of control (PDGFRB (human)): 13% | kinase still bound, per cent of control (PHKG2 (human)): 6.8% | kinase still bound, per cent of control (PIM2 (human)): 100% | kinase still bound, per cent of control (PIP4K2B (human)): 74% | kinase still bound, per cent of control (PIP5K1A (human)): 47% | kinase still bound, per cent of control (PLK4 (human)): 2.1% | kinase still bound, per cent of control (PRKD3 (human)): 66% | kinase still bound, per cent of control (RIOK3 (human)): 68% | kinase still bound, per cent of control (RIPK2 (human)): 100% | kinase still bound, per cent of control (RPS6KA2 KD2 (human)): 80% | kinase still bound, per cent of control (RPS6KA6 KD2 (human)): 29% | kinase still bound, per cent of control (SRPK2 (human)): 93% | kinase still bound, per cent of control (SRPK3 (human)): 76% | kinase still bound, per cent of control (STK11 (human)): 100% | kinase still bound, per cent of control (STK17A (human)): 62% | kinase still bound, per cent of control (STK24 (human)): 95% | kinase still bound, per cent of control (STK33 (human)): 51% | kinase still bound, per cent of control (TAOK3 (human)): 2.1% | kinase still bound, per cent of control (TGFBR2 (human)): 32% | kinase still bound, per cent of control (TNK1 (human)): 100% | kinase still bound, per cent of control (TTK (human)): 86%
